Experimental data: ChEMBL document CHEMBL4011581, “Interference with bile salt export pump function is a susceptibility factor for human liver injury in drug development” (Toxicol Sci, 2010)

These compounds were tested against Bile salt export pump (Homo sapiens, UniProt O95342) (assay: Inhibition of human BSEP expressed in fall armyworm sf9 cell plasma membrane vesicles assessed as reduction in vesicle-associated [3H]-taurocholate transport preincubated for 10 mins prior to ATP addition measured after 15 mins in presence of [3H]-taurocholate by topcount based membrane vesicle transport assay).
Format: ADME
`NC[C@H]1O[C@H](O[C@H]2[C@H](O)[C@@H](O[C@H]3O[C@H](CO)[C@@H](O)[C@H](N)[C@H]3O)[C@H](N)C[C@@H]2N)[C@H](O)[C@@H](O)[C@@H]1O` [KANAMYCIN] was tested, and the IC50 was > 135 µM.
`CC[C@@]1(O)C(=O)OCc2c1cc1n(c2=O)Cc2cc3ccccc3nc2-1` [CAMPTOTHECIN] was tested, and the IC50 was > 135 µM.
In the case of `CC(C)(C)NC[C@H](O)COc1nsnc1N1CCOCC1` [TIMOLOL], the IC50 is reported as > 135 µM.
In the case of `CCC1(c2ccccc2)C(=O)NC(=O)NC1=O` [PHENOBARBITAL], the IC50 is reported as > 135 µM.
For `CC1=NS(=O)(=O)c2cc(Cl)ccc2N1` [DIAZOXIDE], the IC50 was > 135 µM.
Work on `CO[C@H]1/C=C/O[C@@]2(C)Oc3c(C)c(O)c4c(c3C2=O)C2=NC3(CCN(CC(C)C)CC3)NC2=C(NC(=O)/C(C)=C\C=C\[C@H](C)[C@H](O)[C@@H](C)[C@@H](O)[C@@H](C)[C@H](OC(C)=O)[C@@H]1C)C4=O` [RIFABUTIN] yielded an IC50 of 26.7 µM.
In the case of `Nc1nc2c(ncn2COCCO)c(=O)[nH]1` [ACYCLOVIR], the IC50 is reported as > 135 µM.
`OCCN1CCN(CCCN2c3ccccc3Sc3ccc(Cl)cc32)CC1` [PERPHENAZINE] was tested, and the IC50 was > 135 µM.
Compound `COC(=O)C1=C(C)NC(C)=C(C(=O)OCCN(C)Cc2ccccc2)C1c1cccc([N+](=O)[O-])c1` (stereo not given) [NICARDIPINE] has an IC50 of 7.9 µM.
In the case of `Nc1nc(N)c2nc(-c3ccccc3)c(N)nc2n1`, the IC50 is reported as > 135 µM.
For `CC[C@H]1OC(=O)[C@H](C)C(=O)[C@H](C)[C@@H](O[C@@H]2O[C@H](C)C[C@H](N(C)C)[C@H]2O)[C@](C)(OC)C[C@@H](C)C(=O)[C@H](C)[C@H]2N(CCCCn3cnc(-c4cccnc4)c3)C(=O)O[C@]12C` [TELITHROMYCIN], the IC50 was 4 µM.
For `Cc1cccc(C)c1OCC(=O)N[C@@H](Cc1ccccc1)[C@@H](O)C[C@H](Cc1ccccc1)NC(=O)[C@H](C(C)C)N1CCCNC1=O` [LOPINAVIR], the IC50 was 17.3 µM.
In the case of `O=C(O)CCNC(=O)c1ccccc1` [BETAMIPRON], the IC50 is reported as > 135 µM.
`CN1CCN(C2=Nc3cc(Cl)ccc3Nc3ccccc32)CC1` [CLOZAPINE] was tested, and the IC50 was > 135 µM.
`Cc1ccnc2c1NC(=O)c1cccnc1N2C1CC1` [NEVIRAPINE] was tested, and the IC50 was > 135 µM.
In the case of `CN1CCOC(c2ccccc2)c2ccccc2C1` (stereo not given) [NEFOPAM], the IC50 is reported as > 135 µM.
With `CCN(CC)CCNC(=O)c1cc(Cl)c(N)cc1OC` [METOCLOPRAMIDE] the IC50 was > 135 µM.
In the case of `CC(C)N(CCC(C(N)=O)(c1ccccc1)c1ccccn1)C(C)C` (stereo not given) [DISOPYRAMIDE], the IC50 is reported as > 135 µM.
In the case of `C=CCN1CC[C@]23c4c5ccc(O)c4O[C@H]2C(=O)CC[C@@]3(O)[C@H]1C5` [NALOXONE], the IC50 is reported as > 135 µM.
For `CC(C)/N=c1\cc2n(-c3ccc(Cl)cc3)c3ccccc3nc-2cc1Nc1ccc(Cl)cc1` [CLOFAZIMINE], the IC50 was 12.9 µM.
`O=C(O)c1ccccc1-c1c2ccc(=O)cc-2oc2cc(O)ccc12` was tested, and the IC50 was > 135 µM.
`CNS(=O)(=O)Cc1ccc2[nH]cc(CCN(C)C)c2c1` was tested, and the IC50 was > 135 µM.
`CN1C(=O)CN=C(c2ccccc2)c2cc(Cl)ccc21` [DIAZEPAM] was tested, and the IC50 was > 135 µM.
In the case of `CNCCCN1c2ccccc2CCc2ccccc21` [DESIPRAMINE], the IC50 is reported as > 135 µM.
In the case of `CC(=O)[C@H]1[C@H](C#N)C[C@H]2[C@@H]3CC=C4CC(O)CC[C@]4(C)[C@H]3CC[C@@]21C` (stereo not given in full), the IC50 is reported as > 135 µM.
For `CCN(CC)CCOc1ccc2c(c1)C(=O)c1cc(OCCN(CC)CC)ccc1-2` [TILORONE], the IC50 was > 135 µM.
Work on `CN[C@@H]1C[C@H]2O[C@@](C)([C@@H]1OC)n1c3ccccc3c3c4c(c5c6ccccc6n2c5c31)C(=O)NC4` [STAUROSPORINE] yielded an IC50 of 18.7 µM.
With `O=C(NCCN1CCOCC1)c1ccc(Cl)cc1` [MOCLOBEMIDE] the IC50 was > 135 µM.
With `Cc1ccc(C)c(OCCCC(C)(C)C(=O)O)c1` [GEMFIBROZIL] the IC50 was > 135 µM.
With `O=C1CN=C(c2ccccc2)c2cc([N+](=O)[O-])ccc2N1` [NITRAZEPAM] the IC50 was > 135 µM.
With `COc1ccc2cc1Oc1cc3c(cc1OC)CC[N+](C)(C)[C@H]3Cc1ccc(cc1)Oc1c(OC)c(OC)cc3c1[C@@H](C2)[N+](C)(C)CC3` [METOCURINE] the IC50 was > 135 µM.
In the case of `CCN(CC)CCNC(=O)c1ccc(NC(C)=O)cc1` [ACECAINIDE], the IC50 is reported as > 135 µM.
Compound `CCc1nn(CCCN2CCN(c3cccc(Cl)c3)CC2)c(=O)n1CCOc1ccccc1` [NEFAZODONE] has an IC50 of 6.1 µM.
For `O=c1c(O)c(-c2ccc(O)c(O)c2)oc2cc(O)cc(O)c12` [QUERCETIN], the IC50 was > 135 µM.
Work on `Cc1ncc2n1-c1ccc(Cl)cc1C(c1ccccc1F)=NC2` [MIDAZOLAM] yielded an IC50 of 41.7 µM.
Work on `Cc1c(O)cccc1C(=O)N[C@@H](CSc1ccccc1)[C@H](O)CN1C[C@H]2CCCC[C@H]2C[C@H]1C(=O)NC(C)(C)C` yielded an IC50 of 11.8 µM.
`CC1(COc2ccc(CC3SC(=O)NC3=O)cc2)CCCCC1` (stereo not given) [CIGLITAZONE] showed an IC50 of 37.8 µM.
With `COc1ccc2cc([C@H](C)C(=O)O)ccc2c1` [NAPROXEN] the IC50 was > 135 µM.
With `CC(C)(C)NC(=O)[C@H]1CC[C@H]2[C@@H]3CC[C@H]4NC(=O)C=C[C@]4(C)[C@H]3CC[C@]12C` [FINASTERIDE] the IC50 was 28.2 µM.
In the case of `CN(C)CCC(c1ccc(Cl)cc1)c1ccccn1` (stereo not given) [CHLORPHENIRAMINE], the IC50 is reported as > 135 µM.
Work on `CCC(=O)O[C@H]1[C@H](O[C@@H]2[C@@H](C)[C@H](O[C@H]3C[C@@](C)(OC)[C@@H](O)[C@H](C)O3)[C@@H](C)C(=O)O[C@H](CC)[C@@](C)(O)[C@H](O)[C@@H](C)C(=O)[C@H](C)C[C@@]2(C)O)O[C@H](C)C[C@@H]1N(C)C` [ERYTHROMYCIN ESTOLATE] yielded an IC50 of 13 µM.
For `CCOC(=O)Nc1ccc(NCc2ccc(F)cc2)nc1N` [FLUPIRTINE], the IC50 was 35.5 µM.
`CC(=O)CCCCn1c(=O)c2c(ncn2C)n(C)c1=O` [PENTOXIFYLLINE] was tested, and the IC50 was > 135 µM.
For `Nc1cc(-c2ccncc2)c[nH]c1=O` [INAMRINONE], the IC50 was > 135 µM.
For `O=P(O)(O)C(O)(Cn1ccnc1)P(=O)(O)O` [ZOLEDRONIC ACID], the IC50 was > 135 µM.
With `CNCCC=C1c2ccccc2CCc2ccccc21` [NORTRIPTYLINE] the IC50 was > 135 µM.
Compound `CN(CCOc1ccc(CC2SC(=O)NC2=O)cc1)c1ccccn1` (stereo not given) [ROSIGLITAZONE] has an IC50 of 4.4 µM.
With `CN1CC[C@]23c4c5ccc(O)c4O[C@H]2[C@@H](O)C=C[C@H]3[C@H]1C5` [MORPHINE] the IC50 was > 135 µM.
`CS(=O)(=O)CCNCc1ccc(-c2ccc3ncnc(Nc4ccc(OCc5cccc(F)c5)c(Cl)c4)c3c2)o1` [LAPATINIB] gave an IC50 of 6.5 µM.
In the case of `Cc1ccc(C(=O)c2cc(O)c(O)c([N+](=O)[O-])c2)cc1` [TOLCAPONE], the IC50 is reported as 34.5 µM.
For `S=P(N1CC1)(N1CC1)N1CC1` [THIOTEPA], the IC50 was > 135 µM.
For `C[C@@H]1CCC[C@H](C)N1NC(=O)c1ccc(Cl)c(S(N)(=O)=O)c1` [CLOPAMIDE], the IC50 was > 135 µM.
`CCC(C)n1ncn(-c2ccc(N3CCN(c4ccc(OCC5COC(Cn6cncn6)(c6ccc(Cl)cc6Cl)O5)cc4)CC3)cc2)c1=O` (stereo not given) [ITRACONAZOLE] showed an IC50 of 18 µM.
Compound `CC(C)CN(C[C@@H](O)[C@H](Cc1ccccc1)NC(=O)O[C@H]1CCOC1)S(=O)(=O)c1ccc(N)cc1` has an IC50 of 25 to 45 µM.
`Cc1nccn1CC1CCc2c(c3ccccc3n2C)C1=O` (stereo not given) [ONDANSETRON] was tested, and the IC50 was > 135 µM.
For `Nc1c2c(nc3ccccc13)CCCC2` [TACRINE], the IC50 was > 135 µM.
Work on `CNC(=O)c1cc(Oc2ccc(NC(=O)Nc3ccc(Cl)c(C(F)(F)F)c3)cc2)ccn1` [SORAFENIB] yielded an IC50 of 8 µM.
In the case of `C=C[C@H]1C[N@@]2CC[C@H]1C[C@H]2[C@H](O)c1ccnc2ccc(OC)cc12` [QUININE], the IC50 is reported as > 135 µM.
For `Cc1cc(=O)n(-c2ccccc2)n1C` [ANTIPYRINE], the IC50 was > 135 µM.
`C=C[C@H]1C[N@@]2CC[C@H]1C[C@@H]2[C@@H](O)c1ccnc2ccc(OC)cc12` [QUINIDINE] was tested, and the IC50 was > 135 µM.
